# Test results published in the supplement of paper PMC10307832.
# Legend:
# Experiment in all cases: relative viability (nuclei count vs DMSO), 5 days (fraction); higher = more cells survive
# XMD8-85 + Luminespib = compound: CN1CCN(CC1)C2=CC(=C(C=C2)NC3=NC=C4C(=N3)N(C5=CC=CC=C5C(=O)N4C)C)OC [XMD8-85] + CCNC(=O)c1noc(-c2cc(C(C)C)c(O)cc2O)c1-c1ccc(CN2CCOCC2)cc1 [Luminespib] (partner 0.01 µM)
# Summary of the method: (§1)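 Lung cancer cell lines in 1536-well plates were dosed by pin tool the day after seeding, either with one drug alone or with a fixed anchor-drug dose plus five library-drug doses (not always all listed) in √10 steps. After 5 days, cells were fixed and their nuclei stained in one step (final 0.05% Triton X-100, 1% formaldehyde, 1 ug/ml Hoechst), then counted on 4× images. Relative viability is the nuclei count in treated wells divided by that in vehicle wells. Values are medians of duplicate plates.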
# 4EGI-1 + Alpelisib = compound: O=C(O)C(Cc1ccccc1[N+](=O)[O-])=NNc1nc(-c2ccc(Cl)c(Cl)c2)cs1 (mixture of isomers) [4EGI-1] + Cc1nc(NC(=O)N2CCC[C@H]2C(N)=O)sc1-c1ccnc(C(C)(C)C(F)(F)F)c1 [Alpelisib] (partner 2 µM)
# Summary of the method: as §1
# 4EGI-1 + Lapatinib = compound: O=C(O)C(Cc1ccccc1[N+](=O)[O-])=NNc1nc(-c2ccc(Cl)c(Cl)c2)cs1 (mixture of isomers) [4EGI-1] + CS(=O)(=O)CCNCc1ccc(-c2ccc3ncnc(Nc4ccc(OCc5cccc(F)c5)c(Cl)c4)c3c2)o1 [Lapatinib] (partner 2 µM)
# Summary of the method: as §1
# 4EGI-1 + Crizotinib = compound: O=C(O)C(Cc1ccccc1[N+](=O)[O-])=NNc1nc(-c2ccc(Cl)c(Cl)c2)cs1 (mixture of isomers) [4EGI-1] + C[C@@H](Oc1cc(-c2cnn(C3CCNCC3)c2)cnc1N)c1c(Cl)ccc(F)c1Cl [Crizotinib] (partner 1 µM)
# Summary of the method: as §1
cell line,measurement,setting,value
NCI-H1792,relative viability,XMD8-85 + Luminespib; first compound 0.253 µM,0.504
same,relative viability,XMD8-85 + Luminespib; first compound 2.53 µM,0.371
same,relative viability,XMD8-85 + Luminespib; first compound 8 µM,0.35
same,relative viability,4EGI-1 + Alpelisib; first compound 0.5 µM,0.765
same,relative viability,4EGI-1 + Alpelisib; first compound 1.581 µM,0.684
same,relative viability,4EGI-1 + Alpelisib; first compound 5 µM,0.667
same,relative viability,4EGI-1 + Alpelisib; first compound 15.81 µM,0.533
same,relative viability,4EGI-1 + Alpelisib; first compound 50 µM,0.469
same,relative viability,4EGI-1 + Lapatinib; first compound 0.5 µM,0.84
same,relative viability,4EGI-1 + Lapatinib; first compound 1.581 µM,0.864
same,relative viability,4EGI-1 + Lapatinib; first compound 5 µM,0.899
same,relative viability,4EGI-1 + Lapatinib; first compound 15.81 µM,0.816
same,relative viability,4EGI-1 + Lapatinib; first compound 50 µM,0.557
same,relative viability,4EGI-1 + Crizotinib; first compound 0.5 µM,0.963
same,relative viability,4EGI-1 + Crizotinib; first compound 1.581 µM,0.772
same,relative viability,4EGI-1 + Crizotinib; first compound 5 µM,0.963
same,relative viability,4EGI-1 + Crizotinib; first compound 15.81 µM,0.842
same,relative viability,4EGI-1 + Crizotinib; first compound 50 µM,0.823
